US7161029B2, “DiL-lysine monosulfate trihydrate crystal and method of making” (Ajinomoto Co., Inc., priority 2003, dated 2007)

Assays:
Piglets = settings: compared with L-lysine hydrochloride; cited from earlier work
[1] = temperature range at which the trihydrate precipitates (35° C. and below)

Structure (SMILES)	feed effects (Piglets)	degree of solubility in water versus the solubility curve of anhydrous diL-lysine sulfate (FIG. 4) [1]
NCCCC[C@H](N)C(=O)O.NCCCC[C@H](N)C(=O)O.O=S(=O)(O)O [diL-lysine sulfate]	equivalent to those of L-lysine hydrochloride	
NCCCC[C@H](N)C(=O)O.NCCCC[C@H](N)C(=O)O.O.O.O.O=S(=O)(O)O [diL-lysine monosulfate trihydrate]		lower than the degree of solubility that would be anticipated from the solubility curve of anhydrous diL-lysine sulfate
